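Following 48 hours of exposure in 96-well plates, responses at five concentrations were used to interpolate endpoints linearly. TGI is the concentration that stops growth completely.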
What was measured:
Assay in all cases: NCI-60 cell line screen, 48 h
NCI-H226 lung = tested on: NCI-H226 lung
SK-MEL-28 melanoma = tested on: SK-MEL-28 melanoma
MOLT-4 leukemia = tested on: MOLT-4 leukemia
SF-268 CNS = tested on: SF-268 CNS
MALME-3M melanoma = tested on: MALME-3M melanoma
HCC-2998 colon = tested on: HCC-2998 colon
UACC-62 melanoma = tested on: UACC-62 melanoma
IGROV1 ovarian = tested on: IGROV1 ovarian
RXF 393 renal = tested on: RXF 393 renal
HOP-62 NSCLC = tested on: HOP-62 NSCLC
M19-MEL melanoma = tested on: M19-MEL melanoma
LOX IMVI melanoma = tested on: LOX IMVI melanoma
KM12 colon = tested on: KM12 colon
HT29 colon = tested on: HT29 colon
NCI-H23 lung = tested on: NCI-H23 lung
CCRF-CEM leukemia = tested on: CCRF-CEM leukemia
SF-539 CNS = tested on: SF-539 CNS
SF-295 CNS = tested on: SF-295 CNS
U251 CNS = tested on: U251 CNS
SW-620 colon = tested on: SW-620 colon
HCT-116 colon = tested on: HCT-116 colon
UACC-257 melanoma = tested on: UACC-257 melanoma
SNB-19 CNS = tested on: SNB-19 CNS
K-562 leukemia = tested on: K-562 leukemia
ACHN renal = tested on: ACHN renal
OVCAR-3 ovarian = tested on: OVCAR-3 ovarian
HL-60(TB) leukemia = tested on: HL-60(TB) leukemia
OVCAR-8 ovarian = tested on: OVCAR-8 ovarian
DMS 114 small cell lung = tested on: DMS 114 small cell lung
EKVX NSCLC = tested on: EKVX NSCLC
HOP-92 NSCLC = tested on: HOP-92 NSCLC
SN12C renal = tested on: SN12C renal
NCI-H460 lung = tested on: NCI-H460 lung
KM20L2 colon = tested on: KM20L2 colon
HOP-18 NSCLC = tested on: HOP-18 NSCLC
786-0 renal = tested on: 786-0 renal
TK-10 renal = tested on: TK-10 renal
SNB-75 CNS = tested on: SNB-75 CNS
XF 498 CNS = tested on: XF 498 CNS
DLD-1 colon = tested on: DLD-1 colon
RPMI-8226 leukemia = tested on: RPMI-8226 leukemia
COLO 205 colon = tested on: COLO 205 colon
DMS 273 small cell lung = tested on: DMS 273 small cell lung
SR leukemia = tested on: SR leukemia
SNB-78 CNS = tested on: SNB-78 CNS
SK-MEL-2 melanoma = tested on: SK-MEL-2 melanoma
A549 NSCLC = tested on: A549 NSCLC
T-47D breast = tested on: T-47D breast
OVCAR-5 ovarian = tested on: OVCAR-5 ovarian
HS 578T breast = tested on: HS 578T breast
PC-3 prostate = tested on: PC-3 prostate
MDA-MB-231 breast = tested on: MDA-MB-231 breast
MDA-N = tested on: MDA-N
NCI/ADR-RES ovarian = tested on: NCI/ADR-RES ovarian
CAKI-1 renal = tested on: CAKI-1 renal
UO-31 renal = tested on: UO-31 renal
MDA-MB-435 = tested on: MDA-MB-435
NCI-H522 lung = tested on: NCI-H522 lung
BT-549 breast = tested on: BT-549 breast
LXFL 529 NSCLC = tested on: LXFL 529 NSCLC
SK-OV-3 ovarian = tested on: SK-OV-3 ovarian
DU-145 prostate = tested on: DU-145 prostate
HCT-15 colon = tested on: HCT-15 colon
SK-MEL-5 melanoma = tested on: SK-MEL-5 melanoma
A498 renal = tested on: A498 renal
OVCAR-4 ovarian = tested on: OVCAR-4 ovarian
MCF7 breast = tested on: MCF7 breast
M14 melanoma = tested on: M14 melanoma

O=C1CCC2(O)c3ccccc3C2Cc2ccccc21 (configuration not stated)
TGI (NCI-H226 lung): > 100 µM | TGI (SK-MEL-28 melanoma): > 100 µM | TGI (MOLT-4 leukemia): > 100 µM | TGI (SF-268 CNS): > 100 µM | TGI (MALME-3M melanoma): > 100 µM | TGI (HCC-2998 colon): > 100 µM | TGI (UACC-62 melanoma): > 100 µM | TGI (IGROV1 ovarian): > 100 µM | TGI (RXF 393 renal): > 100 µM | TGI (HOP-62 NSCLC): > 100 µM | TGI (M19-MEL melanoma): > 100 µM | TGI (LOX IMVI melanoma): > 100 µM | TGI (KM12 colon): > 100 µM | TGI (HT29 colon): > 100 µM | TGI (NCI-H23 lung): > 100 µM | TGI (CCRF-CEM leukemia): > 100 µM | TGI (SF-539 CNS): > 100 µM | TGI (SF-295 CNS): > 100 µM | TGI (U251 CNS): > 100 µM | TGI (SW-620 colon): > 100 µM | TGI (HCT-116 colon): > 100 µM | TGI (UACC-257 melanoma): > 100 µM | TGI (SNB-19 CNS): > 100 µM | TGI (K-562 leukemia): > 100 µM | TGI (ACHN renal): > 100 µM | TGI (OVCAR-3 ovarian): > 100 µM | TGI (HL-60(TB) leukemia): > 100 µM | TGI (OVCAR-8 ovarian): > 100 µM | TGI (DMS 114 small cell lung): > 100 µM | TGI (EKVX NSCLC): > 100 µM | TGI (HOP-92 NSCLC): > 100 µM | TGI (SN12C renal): > 100 µM | TGI (NCI-H460 lung): > 100 µM | TGI (KM20L2 colon): > 100 µM | TGI (HOP-18 NSCLC): > 100 µM | TGI (786-0 renal): > 100 µM | TGI (TK-10 renal): > 100 µM | TGI (SNB-75 CNS): > 100 µM | TGI (XF 498 CNS): > 100 µM | TGI (DLD-1 colon): > 100 µM | TGI (RPMI-8226 leukemia): > 100 µM | TGI (COLO 205 colon): > 100 µM | TGI (DMS 273 small cell lung): > 100 µM | TGI (SR leukemia): > 100 µM | TGI (SNB-78 CNS): > 100 µM | TGI (SK-MEL-2 melanoma): > 100 µM

NC(=Nc1ccccc1)N/N=C/c1c[nH]c2ccccc12
TGI (NCI-H226 lung): 16.1 µM | TGI (SK-MEL-28 melanoma): 8.77 µM | TGI (MOLT-4 leukemia): 48.4 µM | TGI (A549 NSCLC): 15.4 µM | TGI (T-47D breast): 6.89 µM | TGI (SF-268 CNS): 15 µM | TGI (MALME-3M melanoma): 3.74 µM | TGI (OVCAR-5 ovarian): 15 µM | TGI (HCC-2998 colon): 2.35 µM | TGI (UACC-62 melanoma): 6.84 µM | TGI (HS 578T breast): 2.17 µM | TGI (PC-3 prostate): 12.1 µM | TGI (IGROV1 ovarian): 32.7 µM | TGI (MDA-MB-231 breast): 6.83 µM | TGI (MDA-N): 0.0405 µM | TGI (RXF 393 renal): 0.701 µM | TGI (HOP-62 NSCLC): 9.47 µM | TGI (LOX IMVI melanoma): 8.92 µM | TGI (KM12 colon): 5.28 µM | TGI (HT29 colon): 1.54 µM | TGI (NCI-H23 lung): 2.93 µM | TGI (CCRF-CEM leukemia): 41 µM | TGI (NCI/ADR-RES ovarian): 0.455 µM | TGI (SF-539 CNS): 1.92 µM | TGI (SF-295 CNS): 0.423 µM | TGI (CAKI-1 renal): 22.9 µM | TGI (U251 CNS): 2.61 µM | TGI (UO-31 renal): 12.9 µM | TGI (MDA-MB-435): 0.0649 µM | TGI (SW-620 colon): 5.02 µM | TGI (NCI-H522 lung): 0.306 µM | TGI (HCT-116 colon): 8.67 µM | TGI (UACC-257 melanoma): 12.2 µM | TGI (SNB-19 CNS): 14.8 µM | TGI (K-562 leukemia): 30.4 µM | TGI (BT-549 breast): 16.9 µM | TGI (ACHN renal): 16.1 µM | TGI (LXFL 529 NSCLC): 14.4 µM | TGI (SK-OV-3 ovarian): 4.14 µM | TGI (DU-145 prostate): 2.59 µM | TGI (OVCAR-3 ovarian): 0.314 µM | TGI (HL-60(TB) leukemia): 4.54 µM | TGI (HCT-15 colon): 10.1 µM | TGI (OVCAR-8 ovarian): 3.98 µM | TGI (DMS 114 small cell lung): 2.03 µM | TGI (SK-MEL-5 melanoma): 1.85 µM | TGI (A498 renal): 2.12 µM | TGI (EKVX NSCLC): 25 µM | TGI (HOP-92 NSCLC): 6.01 µM | TGI (SN12C renal): 15.6 µM | TGI (NCI-H460 lung): 4.41 µM | TGI (KM20L2 colon): 1.09 µM | TGI (HOP-18 NSCLC): 73 µM | TGI (786-0 renal): 7.68 µM | TGI (TK-10 renal): 18.9 µM | TGI (SNB-75 CNS): 5.56 µM | TGI (OVCAR-4 ovarian): 15 µM | TGI (DLD-1 colon): 30.2 µM | TGI (RPMI-8226 leukemia): 46 µM | TGI (COLO 205 colon): 0.67 µM | TGI (DMS 273 small cell lung): 13.8 µM | TGI (SR leukemia): > 50.1 µM | TGI (MCF7 breast): 15 µM | TGI (SNB-78 CNS): 19.7 µM | TGI (M14 melanoma): 1.53 µM | TGI (SK-MEL-2 melanoma): 4.95 µM

Source: PubChem BioAssay (NCI)
